# Measurements reported in patent US11351236B2, “BCMA chimeric antigen receptors” (2seventy bio, Inc., priority 2014, dated 2022).
# Test system: human multiple myeloma (RPMI-8226) tumors
# Assay: Sub-cutaneous human multiple myeloma (RPMI-8226) tumor model in NSG mice
# Assay type: in vivo, mouse
# Conditions: ~100 mm^3 RPMI-8226 tumors, 10^7 CAR T cells or Bortezomib, two independent experiments
# Description: Hyperactivation and increased apoptosis could negatively impact CAR T cell persistence in patients and ultimately clinical efficacy. The anti-tumor function of anti-BCMA02 CAR T cells and anti-BCMA10 CAR T cells was examined in a mouse tumor model. NOD scid gamma (NSG) mice with ˜100 mm^3 experimental sub-cutaneous human multiple myeloma (RPMI-8226) tumors were treated with 10^7 anti-BCMA02 CAR T cells, 10^7 anti-BCMA10 CAR T cells, or Bortezomib (velcade). RPMI-8226 growth was monitored with calipers.
compound,measurement,value
CC(C)C[C@H](NC(=O)[C@H](Cc1ccccc1)NC(=O)c1cnccn1)B(O)O [Bortezomib],tumor growth (calipers),controlled tumor growth
